This note sets out measurements from patent US8119671B2, “Isoxazoline-substituted benzamide compound and pest control agent” (Nissan Chemical Industries, Ltd., priority 2007, dated 2012).

Common to all, as to assay type: in vivo
The test system of one assay is Helicoverpa armigera. The assay is described as follows: Test Example 17: Mortality Test for Helicoverpa armigera (Comparative Test 1). Conditions: 144 h, 3-instar larvae, after 6 days; for mortality at 3.3 ppm: concentration 3.3 ppm; for mortality at 10 ppm: concentration 10 ppm; for mortality at 33 ppm: concentration 33 ppm; for mortality at 100 ppm: concentration 100 ppm; for mortality at 0.1 ppm: concentration 0.1 ppm; for mortality at 0.3 ppm: concentration 0.3 ppm; for mortality at 1 ppm: concentration 1 ppm. The method, then: 10% emulsifiable concentrates of the compound of the present invention and a comparative compound were diluted with water containing a spreader to prepare drug solutions in a predetermined concentration. In these drug solutions, a leaf of Canarium album was immersed for about 10 seconds and was air-dried and then put into a petri dish. In the petri dish, seven 3-instar larvae of Helicoverpa armigera per petri dish were released and the petri dish was capped with a lid having pores and stored in a thermostat room of 25° C. After 2 days of the treatment, an artificial feed (1 cm^3) was added into the petri dish. The number of killed larvae after 6 days was measured and the mortality was calculated from the following calculation formula: Mortality (%)=(number of killed larvae/number of released larvae)×100. Here, the test was carried out with two replications.

The test system of assay [1] is Frankliniella occidentalis. Kind of assay: Test Example 18: Mortality Test for Frankliniella occidentalis (Comparative Test 2). Conditions: 48 h. On the procedure: In a styrol cup having an inner diameter of 7 cm, a wet filtration paper was laid, and on the paper, a leaf of kidney bean cut out so as to have the same diameter as the inner diameter of the cup was laid, followed by inoculating ten 1 instar larvae of Frankliniella occidentalis per leaf to the leaf. 10% emulsifiable concentrates of the compound of the present invention and a comparative compound were diluted with water containing a spreader to prepare drug solutions in a predetermined concentration. The drug solutions were dusted using a rotary dusting tower in an amount of 2.5 mL per styrol cup, and the cup was capped and stored in a thermostat room of 25° C. The number of killed larvae after 2 days was measured and the mortality was calculated from the following calculation formula: Mortality (%)=(number of killed larvae/number of released larvae)×100. Here, the test was carried out with two replications.

A further assay deals with Homona magnanima. The assay is described as follows: Test Example 3: Mortality Test for Homona magnanima. The conditions noted are these: 144 h. The method, then: (§1) A 10% emulsifiable concentrate of the compound of the present invention (depending on the type of the compound, a 10% wettable powder was subjected to the test) was diluted with water containing a spreader to prepare a drug solution in a concentration of 100 ppm. In this drug solution, a leaf of canarium album was immersed for about 10 seconds and was air-dried and then put into a petri dish. In the petri dish, five 2 instar larvae of Homona magnanima per petri dish were released and the petri dish was capped and stored in a thermostat room of 25° C. The number of killed larvae after 6 days was measured and the mortality was calculated from the same calculation formula as that in Test Example 1. Here, the test was carried out with two replications.

A further assay deals with Liriomyza trifolii. Kind of assay: Test Example 13: Mortality Test for Liriomyza trifolii. The conditions noted are these: 144 h, drug solution 500 ppm, kidney bean leaf with eggs immersed, after 6 days. The method, then: as §1, with “500” for “100”, “kidney bean on which Liriomyza trifolii laid eggs (10 eggs/leaf) and which was cut out to a diameter of 7 cm” for “canarium album”, “laid on” for “put into”, “wet filtration paper laid in a styrol cup having an inner diameter” for “petri dish. In the petri dish, five 2 instar larvae”, “7 cm. The styrol cup” for “Homona magnanima per petri dish were released and the petri dish”

The next assay has as its system Plutella xylostella. Kind of assay: Test Example 1: Mortality Test for Plutella xylostella. The conditions noted are these: 144 h. The method, then:
as §1, with “10” for “100”, “Plutella xylostella” for “Homona magnanima”, “following” for “same”, “formula: Mortality (%)=(number of killed larvae/number of released larvae)×100.” for “formula as that in Test Example 1.”

The test system of the next assay is Spodoptera litura. Kind of assay: Test Example 2: Mortality Test for Spodoptera litura. The conditions noted are these: 144 h. The method, then: as §1, with “10” for “100”, “Spodoptera litura” for “Homona magnanima”
The subject of a further assay is Bemisia argentifolii. The assay is described as follows: Test Example 9: Mortality Test for Bemisia argentifolii. The conditions noted are these: in Solanum lycopersicum, 144 h. On the procedure: (§2) In a styrol cup having an inner diameter of 7 cm, a wet filtration paper was laid, and on the paper, a cut-out leaf of tomato on which Bemisia argentifolii laid eggs (10 eggs/leaf) was laid. A 10% emulsifiable concentrate of the compound of the present invention (depending on the type of the compound, a 10% wettable powder was subjected to the test) was diluted with water containing a spreader to prepare a drug solution in a concentration of 500 ppm. The drug solution was dusted using a rotary dusting tower in an amount of 2.5 mL per styrol cup and the cup was capped and stored in a thermostat room of 25° C. The number of killed larvae after 6 days was measured and the mortality was calculated from the same calculation formula as that in Test Example 1. Here, the test was carried out with two replications.

In a further assay the test system is Planococcus kraunhiae. Kind of assay: Test Example 11: Mortality Test for Planococcus kraunhiae. Conditions: 144 h. On the procedure: as §2, with “a” for “a cut-out”, “kidney bean cut out so as to have the same diameter as the inner diameter of the cup” for “tomato on which Bemisia argentifolii laid eggs (10 eggs/leaf)”, “laid, followed by inoculating ten 1 instar larvae of Planococcus kraunhiae per leaf to the leaf.” for “laid.”

In a further assay the test system is Myzus persicae. Kind of assay: Test Example 10: Mortality Test for Myzus persicae. The conditions noted are these: 144 h. On the procedure: In a glass petri dish having an inner diameter of 3 cm, a wet absorbent cotton was laid, and on the cotton, a leaf of canarium album cut out so as to have the same diameter as the inner diameter of the petri dish was laid, followed by releasing 4 apterous imagines of Myzus persicae on the leaf. After one day, 10% emulsifiable concentrate of the compound of the present invention (depending on the type of the compound, a 10% wettable powder was subjected to the test) was diluted with water containing a spreader to prepare a drug solution in a concentration of 500 ppm. The drug solution was dusted using a rotary dusting tower (2.5 mg/cm^2) and the petri dish was capped and stored in a thermostat room of 25° C. The number of killed imagines after 6 days was measured and the mortality was calculated from the same calculation formula as that in Test Example 1. Here, the test was carried out with two replications.

By mortality is commonly meant the percentage killed. Higher therefore signals fewer survivors. In the assay with Helicoverpa armigera, `CNC(=O)NC(=O)c1ccc(C2=NOC(c3cc(Cl)cc(Cl)c3)(C(F)(F)F)C2)cc1C` (centres unmarked) [Comparative compound A, reference compound] gave a mortality at 3.3 ppm of 21.4%, a mortality at 10 ppm of 92.9%, a mortality at 33 ppm of 100% and a mortality at 100 ppm of 100%.
In the assay with Helicoverpa armigera, `COC(=NC(=O)c1ccc(C2=NOC(c3cc(Cl)cc(Cl)c3)(C(F)(F)F)C2)cc1C)SC` (centres unmarked) [Comparative compound B, reference compound] showed a mortality at 3.3 ppm of 35.7%, a mortality at 10 ppm of 71.4%, a mortality at 33 ppm of 85.7% and a mortality at 100 ppm of 100%.
In the case of `O=C(N[C@H]1C[C@@H]1c1ccccc1)c1ccc(C2=NOC(c3ccc(Cl)c(Cl)c3)(C(F)(F)F)C2)cc1` (some centres unmarked) [Comparative compound C], in assay [1], the mortality at 3.3 ppm amounted to 0%, the mortality at 10 ppm is 0%, the mortality at 33 ppm is 0% and the mortality at 100 ppm is 0%.
As to `CCNC(=O)NC(=O)c1ccc(C2=NOC(c3cc(Cl)cc(Cl)c3)(C(F)(F)F)C2)cc1C` (centres unmarked) [Comparative compound D], in assay [1], the mortality at 3.3 ppm stood at 0%, the mortality at 10 ppm was 45.7%, the mortality at 33 ppm turned out to be 100% and the mortality at 100 ppm stood at 100%.
`COC(N)=NC(=O)c1ccc(C2=NOC(c3cc(Cl)cc(Cl)c3)(C(F)(F)F)C2)cc1C` (centres unmarked) [No. 2-003, N-[Amino(methoxy)methylidene]-4-[5-(3,5-dichlorophenyl)-5-trifluoromethyl-4,5-dihydroisoxazole-3-yl]-2-methyl benzoic acid amide] showed a mortality at 100 ppm in the assay on Homona magnanima of no less than 80%. For the same molecule, in the assay with Helicoverpa armigera, the mortality at 0.1 ppm amounted to 57.1%, the mortality at 0.3 ppm was 85.7%, the mortality at 1 ppm was 100% and the mortality at 3.3 ppm worked out at 100%. In addition, the mortality at 10 ppm in the assay on Helicoverpa armigera stood at 100%.
Molecule `CSC(N)=NC(=O)c1ccc(C2=NOC(c3cc(Cl)cc(Cl)c3)(C(F)(F)F)C2)cc1C` (centres unmarked) [No. 2-010, N-(Amino(methylthio)methylidene)-4-(5-(3,5-dichlorophenyl)-5-trifluoromethyl-4,5-dihydroisoxazole-3-yl)-2-methyl benzoic acid amide] returned a mortality at 100 ppm in the assay with Homona magnanima of no less than 80%. In addition, the mortality at 500 ppm in the assay on Liriomyza trifolii is no less than 80%.
With `CNC(N)=NC(=O)c1ccc(C2=NOC(c3cc(Cl)cc(Cl)c3)(C(F)(F)F)C2)cc1C` (centres unmarked) [No. 2-012, N-[Amino(methylamino)methylidene]-4-[5-(3,5-dichlorophenyl)-5-trifluoromethyl-4,5-dihydroisoxazole-3-yl]-2-methyl benzoic acid amide], the mortality at 100 ppm in the assay on Plutella xylostella and with Spodoptera litura was no less than 80% each time.
For the molecule `CNC(=NC(=O)c1ccc(C2=NOC(c3cc(Cl)cc(Cl)c3)(C(F)(F)F)C2)cc1C)OC` (centres unmarked) [No. 3-001, N-[Methoxy(methylamino)methylidene]-4-[5-(3,5-dichlorophenyl)-5-trifluoromethyl-4,5-dihydroisoxazole-3-yl]-2-methyl benzoic acid amide], the mortality at 100 ppm in the assay with Homona magnanima was no less than 80%. The molecule further had a mortality at 500 ppm in the assay with Bemisia argentifolii of no less than 80%. Also, in the assay on Helicoverpa armigera, the mortality at 0.1 ppm worked out at 0%, the mortality at 0.3 ppm stood at 21.4%, the mortality at 1 ppm came to 71.4% and the mortality at 3.3 ppm amounted to 100%. Also, in the assay on Helicoverpa armigera, the mortality at 10 ppm is 100%. The molecule also registered a mortality at 500 ppm in the assay on Planococcus kraunhiae of no less than 80%. Moreover, the mortality at 500 ppm with Myzus persicae was no less than 80%.
